Source: article PMC10041525, “New Dual Inhibitors of Bacterial Topoisomerases with Broad-Spectrum Antibacterial Activity and In Vivo Efficacy against Vancomycin-Intermediate Staphylococcus aureus” (Journal of Medicinal Chemistry, 2023)
Values after ≈ are worked out from the molar mass of the structure shown. Where two headings read alike, the source gives them in different places.

Tests used:
E. faecalis ATCC 29212 = system: E. faecalis ATCC 29212; parameters: method as in earlier work; conditions: QC range for E. faecalis ATCC 29212, ref CLSI; cited from earlier work
E. faecium (n = 13) = assay: MIC broth microdilution at IHMA Europe; type: cell-based; conditions: for MIC: Enterococcus faecium, read-out: MIC
S. pneumoniae ATCC 49619 = assay: IHMA QC MIC; type: cell-based
Text: Supplement jm2c01905_si_004.xlsx, sheet "QC" | column: MIC [µg/mL]

[1] = system: 100 A. baumannii strains (50 MDR, 50 non-MDR); assay: MIC broth microdilution at IHMA Europe, panel of 100 strains; type: cell-based; conditions: Acinetobacter baumannii, read-out: MIC

C[C@@H](O)[C@H]1C(=O)N2C(C(=O)O)=C(SCCNC=N)C[C@H]12 [Imipenem, imipenem]
MIC, CLSI Range (E. faecalis ATCC 29212): 0,5 - 2 µg/mL
MIC (E. faecium (n = 13); E. faecium IHMA N° 1764866): > 32 µg/mL
MIC (E. faecium (n = 13); E. faecium IHMA N° 1765436): 16 µg/mL (≈ 53.4 µM)
MIC (E. faecium (n = 13); E. faecium IHMA N° 1765746): > 32 µg/mL
MIC (E. faecium (n = 13); E. faecium IHMA N° 1893573): > 32 µg/mL
MIC (E. faecium (n = 13); E. faecium IHMA N° 1893846): > 32 µg/mL
MIC (E. faecium (n = 13); E. faecium IHMA N° 1893942): > 32 µg/mL
MIC (E. faecium (n = 13); E. faecium IHMA N° 1894055): > 32 µg/mL
MIC (E. faecium (n = 13); E. faecium IHMA N° 1897027): > 32 µg/mL
MIC (E. faecium (n = 13); E. faecium IHMA N° 1897101): > 32 µg/mL
MIC (E. faecium (n = 13); E. faecium IHMA N° 1904592): > 32 µg/mL
MIC (E. faecium (n = 13); E. faecium IHMA N° 2075051): > 32 µg/mL
MIC (E. faecium (n = 13); E. faecium IHMA N° 2077718): > 32 µg/mL
MIC (E. faecium (n = 13); E. faecium IHMA N° 2083787): > 32 µg/mL
Cumulative % at MIC (E. faecium (n = 13); MIC […] µg/mL): 7.7%
No. of isolates at MIC (E. faecium (n = 13); MIC […] µg/mL): 1
Cumulative % at MIC (E. faecium (n = 13); MIC >32 µg/mL): 100.0%
No. of isolates at MIC (E. faecium (n = 13); MIC >32 µg/mL): 12
MIC (S. pneumoniae ATCC 49619; QC strain S. pneumoniae ATCC 49619, test date 2021-11-26): 0.03 µg/mL (≈ 0.1 µM)
MIC (S. pneumoniae ATCC 49619; Streptococcus pneumoniae, ATCC49619, QC strain S. pneumoniae ATCC 49619, test date 2021-11-11, read-out: MIC): 0.03 µg/mL (≈ 0.1 µM)
MIC ([1]; A. baumannii IHMA 1769393, Lithuania 2018, Non-MDR): ≤ 0.25 µg/mL
MIC ([1]; A. baumannii IHMA 1769782, Israel 2018, MDR): > 16 µg/mL
MIC ([1]; A. baumannii IHMA 1769910, Israel 2018, Non-MDR): ≤ 0.25 µg/mL
MIC ([1]; A. baumannii IHMA 1790317, Czech Republic 2018, Non-MDR): ≤ 0.25 µg/mL
MIC ([1]; A. baumannii IHMA 1790916, Romania 2018, Non-MDR): ≤ 0.25 µg/mL
MIC ([1]; A. baumannii IHMA 1791877, Israel 2018, MDR): > 16 µg/mL
MIC ([1]; A. baumannii IHMA 1792961, Jordan 2018, MDR): > 16 µg/mL
MIC ([1]; A. baumannii IHMA 1795669, Tunisia 2018, Non-MDR): 0.5 µg/mL (≈ 1.67 µM)
MIC ([1]; A. baumannii IHMA 1814276, Lebanon 2018, MDR): > 16 µg/mL
MIC ([1]; A. baumannii IHMA 1815198, Kuwait 2018, MDR): > 16 µg/mL
MIC ([1]; A. baumannii IHMA 1815856, Israel 2018, MDR): > 16 µg/mL
MIC ([1]; A. baumannii IHMA 1821468, South Africa 2018, Non-MDR): 0.5 µg/mL (≈ 1.67 µM)
MIC ([1]; A. baumannii IHMA 1829500, Georgia 2018, Non-MDR): ≤ 0.25 µg/mL
MIC ([1]; A. baumannii IHMA 1830924, United Kingdom 2018, Non-MDR): ≤ 0.25 µg/mL
MIC ([1]; A. baumannii IHMA 1849819, Kuwait 2018, MDR): > 16 µg/mL
MIC ([1]; A. baumannii IHMA 1849829, Kuwait 2018, Non-MDR): ≤ 0.25 µg/mL
MIC ([1]; A. baumannii IHMA 1857118, Slovenia 2018, Non-MDR): ≤ 0.25 µg/mL
MIC ([1]; A. baumannii IHMA 1863631, France 2018, Non-MDR): ≤ 0.25 µg/mL
MIC ([1]; A. baumannii IHMA 1870054, United States 2018, Non-MDR): ≤ 0.25 µg/mL
MIC ([1]; A. baumannii IHMA 1884428, Italy 2018, Non-MDR): ≤ 0.25 µg/mL
MIC ([1]; A. baumannii IHMA 1884990, Germany 2018, Non-MDR): ≤ 0.25 µg/mL
MIC ([1]; A. baumannii IHMA 1900538, Turkey 2018, Non-MDR): ≤ 0.25 µg/mL
MIC ([1]; A. baumannii IHMA 1913773, Kenya 2018, Non-MDR): ≤ 0.25 µg/mL
MIC ([1]; A. baumannii IHMA 1926285, Qatar 2018, Non-MDR): ≤ 0.25 µg/mL
MIC ([1]; A. baumannii IHMA 1926288, Qatar 2018, MDR): > 16 µg/mL
MIC ([1]; A. baumannii IHMA 1957343, Portugal 2019, Non-MDR): ≤ 0.25 µg/mL
MIC ([1]; A. baumannii IHMA 1963732, Turkey 2019, MDR): > 16 µg/mL
MIC ([1]; A. baumannii IHMA 1967860, Spain 2019, Non-MDR): ≤ 0.25 µg/mL
MIC ([1]; A. baumannii IHMA 1971673, Latvia 2019, MDR): > 16 µg/mL
MIC ([1]; A. baumannii IHMA 1975075, Israel 2019, Non-MDR): ≤ 0.25 µg/mL
MIC ([1]; A. baumannii IHMA 1977077, Kuwait 2019, Non-MDR): ≤ 0.25 µg/mL
MIC ([1]; A. baumannii IHMA 1983151, Greece 2019, MDR): > 16 µg/mL
MIC ([1]; A. baumannii IHMA 1984665, Lithuania 2019, MDR): > 16 µg/mL
MIC ([1]; A. baumannii IHMA 1986678, Turkey 2019, Non-MDR): 0.5 µg/mL (≈ 1.67 µM)
MIC ([1]; A. baumannii IHMA 1986738, Turkey 2019, MDR): > 16 µg/mL
MIC ([1]; A. baumannii IHMA 1987162, Croatia 2019, MDR): > 16 µg/mL
MIC ([1]; A. baumannii IHMA 1993615, Turkey 2019, MDR): > 16 µg/mL
MIC ([1]; A. baumannii IHMA 1994284, Italy 2019, MDR): > 16 µg/mL
MIC ([1]; A. baumannii IHMA 1995161, Czech Republic 2019, Non-MDR): ≤ 0.25 µg/mL
MIC ([1]; A. baumannii IHMA 1997936, Morocco 2019, Non-MDR): ≤ 0.25 µg/mL
MIC ([1]; A. baumannii IHMA 1999178, Belgium 2019, Non-MDR): ≤ 0.25 µg/mL
MIC ([1]; A. baumannii IHMA 2003279, Turkey 2019, MDR): > 16 µg/mL
MIC ([1]; A. baumannii IHMA 2014367, Jordan 2019, Non-MDR): ≤ 0.25 µg/mL
MIC ([1]; A. baumannii IHMA 2014931, South Africa 2019, Non-MDR): ≤ 0.25 µg/mL
MIC ([1]; A. baumannii IHMA 2019315, Romania 2019, Non-MDR): ≤ 0.25 µg/mL
MIC ([1]; A. baumannii IHMA 2020360, Croatia 2019, MDR): > 16 µg/mL
MIC ([1]; A. baumannii IHMA 2031511, Greece 2019, Non-MDR): ≤ 0.25 µg/mL
MIC ([1]; A. baumannii IHMA 2031524, Greece 2019, MDR): > 16 µg/mL
MIC ([1]; A. baumannii IHMA 2034657, Tunisia 2019, Non-MDR): ≤ 0.25 µg/mL
MIC ([1]; A. baumannii IHMA 2035089, Serbia 2019, MDR): > 16 µg/mL
MIC ([1]; A. baumannii IHMA 2035134, Serbia 2019, Non-MDR): ≤ 0.25 µg/mL
MIC ([1]; A. baumannii IHMA 2038976, Hungary 2019, MDR): > 16 µg/mL
MIC ([1]; A. baumannii IHMA 2051503, Serbia 2019, MDR): > 16 µg/mL
MIC ([1]; A. baumannii IHMA 2058329, Slovenia 2019, Non-MDR): ≤ 0.25 µg/mL
MIC ([1]; A. baumannii IHMA 2065587, France 2019, Non-MDR): ≤ 0.25 µg/mL
MIC ([1]; A. baumannii IHMA 2099294, United Kingdom 2019, Non-MDR): ≤ 0.25 µg/mL
MIC ([1]; A. baumannii IHMA 2129256, Qatar 2019, Non-MDR): ≤ 0.25 µg/mL
MIC ([1]; A. baumannii IHMA 2154584, Israel 2020, MDR): 16 µg/mL (≈ 53.4 µM)
MIC ([1]; A. baumannii IHMA 2155340, Kenya 2020, MDR): 16 µg/mL (≈ 53.4 µM)
